Test system: rabbit fetuses
Test: animal tests, rabbit fetuses under hypoxic conditions
Assay type: in vivo

`Cc1cc(N)nc(C[C@@H]2CNC[C@@H]2OCCNCCc2cccc(F)c2)c1` [Compound 1] was tested, and the “neurological damage to rabbit fetuses” value was “remarkable reduction in neurological damage”.

— patent publication US9212161B2, “Chiral synthesis of pyrrolidine core compounds en route to neuronal nitric oxide synthase inhibitors” (Northwestern University, priority 2010, dated 2015)
